pEC50, pIC50: −log10 of the molar value.
Columns and labels:
[1] = molecular target: soluble guanylate cyclase (sGC) (Rattus norvegicus (Rat), UniProt P20595); experiment: Stimulation of sGC enzyme activity (PPi detection, luciferase); type: biochemical; details: sGC enzyme in vitro; for pEC50: read-out: EC50 (concentration at 50% of maximum efficacy), activating action at the sGC enzyme
Procedure: Soluble guanylate cyclase (sGC) converts on stimulation GTP into cGMP and pyrophosphate (PPi). PPi is detected with the aid of the assay described below. The signal produced in the assay increases as the reaction progresses and serves as a measure of the sGC enzyme activity under the given stimulation.
To carry out the assay, 29 μl of enzyme solution [0-10 nM soluble guanylate cyclase (prepared according to Hönicka et al, J. Mol. Med. 77, 14-23 (1999)) in 50 mM TEA, 2 mM MgC2, 0.1% BSA (fraction V), 0.005% Brij®, pH 7.5] are initially introduced into a microplate, and 1 μl of the substance to be tested (as a serially diluted solution in DMSO) is added. The mixture is incubated at room temperature for 10 min. Then 20 μl of detection mix [1.2 nM Firefly Luciferase (Photinus pyralis luciferase, Promega), 29 μM dehydroluciferin (prepared according to Bitler & McElroy, Arch. Biochem. Biophys. 72, 358 (1957)), 122 μM luciferin (Promega), 153 μM ATP (Sigma) and 0.4 mM DTT (Sigma) in 50 mM TEA, 2 mM MgCl2, 0.1% BSA (fraction V), 0.005% Brij®, pH 7.5] are added. The enzyme reaction is started by adding 20 μl of substrate solution [1.25 mM guanosine 5′-triphosphate (Sigma) in 50 mM TEA, 2 mM MgC2, 0.1% BSA (fraction V), 0.005% Brij®, pH 7.5] and measured continuously in a luminometer. The extent of the stimulation by the substance to be tested can be determined relative to the signal of the unstimulated reaction.
The activation of haem-free guanylate cyclase is examined by addition of 25 μM of 1H-1,2,4-oxadiazolo[4,3-a]quinoxalin-1-one (ODQ) to the enzyme solution and subsequent incubation for 30 minutes and compared to the stimulation of the native enzyme.

[2] = system: recombinant guanylate cyclase reporter cell line (CHO reporter cell); experiment: Action at a recombinant guanylate cyclase reporter cell line; type: cell-based; details: CHO reporter cell in vitro; read-out: MEC (minimum effective concentration), sGC-activating activity in the CHO reporter cell
Procedure: The cellular action of the compounds according to the invention is determined at a recombinant guanylate cyclase reporter cell line, as described in F. Wunder et al., Anal. Biochem. 339, 104-112 (2005).

[3] = molecular target: recombinant soluble guanylate cyclase (sGC), haem-free (Rattus norvegicus (Rat), UniProt P20595); experiment: Stimulation of recombinant soluble guanylate cyclase (sGC) in vitro, haem-free enzyme; type: biochemical; details: n = 5
Procedure: Investigations on the stimulation of recombinant soluble guanylate cyclase (sGC) by the compounds according to the invention with and without sodium nitroprusside, and with and without the haem-dependent sGC inhibitor 1H-1,2,4-oxadiazolo[4,3a]quinoxalin-1-one (ODQ), are carried out by the method described in detail in the following reference: M. Hoenicka, E. M. Becker, H. Apeler, T. Sirichoke. H. Schroeder, R. Gerzer and J.-P. Stasch, “Purified soluble guanylyl cyclase expressed in a baculovirus/Sf9 system: Stimulation by YC-1, nitric oxide, and […]”, J. Mol. Med. 77 (1999), 14-23. The haem-free guanylate cyclase is obtained by adding Tween 20 to the sample buffer (0.5% in the final concentration).
(§1) The activation of sGC by a test substance is reported as x-fold stimulation of the basal activity.

[4] = system: saphenous artery rings; experiment: Vasorelaxant effect in vitro (phenylephrine-contracted saphenous artery rings); type: cell-based; details: Oryctolagus cuniculus; rabbit saphenous artery rings, phenylephrine-induced contraction
Procedure: Rabbits are anaesthetized and sacrificed by intravenous injection of thiopental sodium (about 50 mg/kg) and exsanguinated. The saphenous artery is removed and divided into rings 3 mm wide. The rings are mounted singly on in each case a pair of triangular hooks open at the end and made of 0.3 mm-thick special wire (Remanium®). Each ring is placed under an initial tension in 5 ml organ baths with Krebs-Henseleit solution which is at 37° C., is gassed with carbogen and has the following composition: NaCl 119 mM; KCl 4.8 mM; CaCl2×2 H2O 1 mM; MgSO4×7 H2O 1.4 mM; KH2PO4 1.2 mM; NaHCO3 25 mM; glucose 10 mM; bovine serum albumin 0.001%. The force of contraction is detected with Statham UC2 cells, amplified and digitized via A/D converters (DAS-1802 HC, Keithley Instruments, Munich) and recorded in parallel on chart recorders. Contractions are induced by addition of phenylephrine.
After several (generally 4) control cycles, the substance to be investigated is added in each further run in increasing dosage, and the level of the contraction achieved under the influence of the test substance is compared with the level of the contraction reached in the last preceding run. The concentration necessary to reduce the contraction reached in the preceding control by 50% is calculated from this (IC50). The standard application volume is 5 μl. The proportion of DMSO in the bath solution corresponds to 0.1%.

[5] = molecular target: recombinant soluble guanylate cyclase (sGC), haem-containing (Rattus norvegicus (Rat), UniProt P20595); experiment: Stimulation of recombinant soluble guanylate cyclase (sGC) in vitro, haem-containing enzyme; type: biochemical; details: for Stimulation (x-fold) of haem-containing sGC, basal: n = 5
Text: Hoenicka, E. M. Becker, H. Apeler, T. Sirichoke. H. Schroeder, R. Gerzer and J.-P. Stasch, “Purified soluble guanylyl cyclase expressed in a baculovirus/Sf9 system: Stimulation by YC-1, nitric oxide, and […]”, J. Mol. Med. 77 (1999), 14-23. The haem-free guanylate cyclase is obtained by adding Tween 20 to the sample buffer (0.5% in the final concentration).
as §1

Chain of recombinant soluble guanylate cyclase (sGC), haem-containing (P20595 whole entry): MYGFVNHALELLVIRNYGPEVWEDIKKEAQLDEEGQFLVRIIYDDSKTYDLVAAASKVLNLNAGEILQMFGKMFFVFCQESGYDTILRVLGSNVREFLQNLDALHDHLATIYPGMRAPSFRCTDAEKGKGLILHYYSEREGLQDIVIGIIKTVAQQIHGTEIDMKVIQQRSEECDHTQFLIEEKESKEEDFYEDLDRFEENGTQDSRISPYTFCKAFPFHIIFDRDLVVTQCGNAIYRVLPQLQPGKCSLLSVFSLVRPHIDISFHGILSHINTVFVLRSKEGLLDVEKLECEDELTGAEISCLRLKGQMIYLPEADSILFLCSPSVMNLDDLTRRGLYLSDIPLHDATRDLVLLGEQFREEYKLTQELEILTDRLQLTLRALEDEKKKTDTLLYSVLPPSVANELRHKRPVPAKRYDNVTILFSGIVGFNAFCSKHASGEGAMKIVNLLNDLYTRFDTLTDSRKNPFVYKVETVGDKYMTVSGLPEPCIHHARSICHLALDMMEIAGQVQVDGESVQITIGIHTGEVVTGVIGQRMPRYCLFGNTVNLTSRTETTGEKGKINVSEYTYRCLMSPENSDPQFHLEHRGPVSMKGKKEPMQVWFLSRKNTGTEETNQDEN
Chain of recombinant soluble guanylate cyclase (sGC), haem-containing (P19686 whole entry partner): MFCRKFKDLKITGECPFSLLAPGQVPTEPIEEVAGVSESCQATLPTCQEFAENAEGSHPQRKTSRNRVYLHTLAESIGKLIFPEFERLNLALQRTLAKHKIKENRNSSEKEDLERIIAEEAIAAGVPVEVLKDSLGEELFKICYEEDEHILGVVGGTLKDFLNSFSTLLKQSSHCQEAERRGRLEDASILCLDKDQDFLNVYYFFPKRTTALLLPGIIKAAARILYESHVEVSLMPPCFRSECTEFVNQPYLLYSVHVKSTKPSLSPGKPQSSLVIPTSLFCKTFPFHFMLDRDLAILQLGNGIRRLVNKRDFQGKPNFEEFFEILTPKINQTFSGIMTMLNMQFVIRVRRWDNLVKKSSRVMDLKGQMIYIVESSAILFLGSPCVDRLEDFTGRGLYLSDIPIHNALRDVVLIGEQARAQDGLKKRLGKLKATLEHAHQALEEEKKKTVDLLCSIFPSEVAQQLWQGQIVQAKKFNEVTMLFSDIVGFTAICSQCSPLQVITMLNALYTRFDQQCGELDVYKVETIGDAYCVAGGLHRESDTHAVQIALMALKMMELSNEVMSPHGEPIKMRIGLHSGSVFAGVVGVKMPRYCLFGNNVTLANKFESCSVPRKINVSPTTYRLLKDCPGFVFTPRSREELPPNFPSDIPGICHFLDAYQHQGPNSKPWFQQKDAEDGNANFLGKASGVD
Chain of recombinant soluble guanylate cyclase (sGC), haem-free (P20595 whole entry): as the sequence (P20595 whole entry) above
Chain of recombinant soluble guanylate cyclase (sGC), haem-free (P19686 whole entry partner): as the sequence (P19686 whole entry partner) above
Chain of soluble guanylate cyclase (sGC) (P20595 whole entry): as the sequence (P20595 whole entry) above
Chain of soluble guanylate cyclase (sGC) (P19686 whole entry partner): as the sequence (P19686 whole entry partner) above

C[C@H]([C@H](C(=O)Nc1cc(C(CC(=O)O)C2CC2)ccc1Cl)c1ccc(Cl)cc1)C(F)(F)F (single isomer, unassigned; (+)) [Example 22]
MEC (minimum effective concentration), activating action at the sGC enzyme [1]: 2.4 nM | pEC50 [1]: 7.17 | minimal effective concentration [2]: 0.0018 µM | Stimulation (x-fold) of haem-free sGC, basal ([3]; 0.01 μM Example 22): 1.2 ± 0.1 x-fold | Stimulation (x-fold) of haem-free sGC, basal ([3]; 0.1 μM Example 22): 1.6 ± 0.5 x-fold | Stimulation (x-fold) of haem-free sGC, basal ([3]; 1.0 μM Example 22): 4.9 ± 1.5 x-fold | Stimulation (x-fold) of haem-free sGC, basal ([3]; 10 μM Example 22): 14.2 ± 2.0 x-fold | pIC50 [4]: 6.86 | Stimulation (x-fold) of haem-containing sGC, +0.01 μM DEA/NO ([5]; 0.01 μM Example 22 + 0.01 μM DEA/NO): 4.4 ± 1.3 x-fold | Stimulation (x-fold) of haem-containing sGC, +10 μM ODQ ([5]; 0.01 μM Example 22 + 10 μM ODQ): 5.7 ± 1.6 x-fold | Stimulation (x-fold) of haem-containing sGC, basal ([5]; 0.01 μM Example 22): 1.6 ± 0.3 x-fold | Stimulation (x-fold) of haem-containing sGC, +0.01 μM DEA/NO ([5]; 0.1 μM Example 22 + 0.01 μM DEA/NO): 3.4 ± 0.9 x-fold | Stimulation (x-fold) of haem-containing sGC, +10 μM ODQ ([5]; 0.1 μM Example 22 + 10 μM ODQ): 6.1 ± 1.7 x-fold | Stimulation (x-fold) of haem-containing sGC, basal ([5]; 0.1 μM Example 22): 1.6 ± 0.5 x-fold | Stimulation (x-fold) of haem-containing sGC, +0.01 μM DEA/NO ([5]; 1.0 μM Example 22 + 0.01 μM DEA/NO): 4.4 ± 1.4 x-fold | Stimulation (x-fold) of haem-containing sGC, +10 μM ODQ ([5]; 1.0 μM Example 22 + 10 μM ODQ): 8.4 ± 2.2 x-fold | Stimulation (x-fold) of haem-containing sGC, basal ([5]; 1.0 μM Example 22): 2.4 ± 1.0 x-fold | Stimulation (x-fold) of haem-containing sGC, +0.01 μM DEA/NO ([5]; 10 μM Example 22 + 0.01 μM DEA/NO): 7.8 ± 2.5 x-fold | Stimulation (x-fold) of haem-containing sGC, +10 μM ODQ ([5]; 10 μM Example 22 + 10 μM ODQ): 18.3 ± 5.4 x-fold | Stimulation (x-fold) of haem-containing sGC, basal ([5]; 10 μM Example 22): 4.9 ± 1.2 x-fold | Combination with the NO donor DEA/NO: synergistic effect on sGC stimulation ([5]; haem-containing sGC, combination with DEA/NO): no synergistic effect | Effect of the haem-dependent sGC inhibitor ODQ on the sGC activation ([5]; haem-containing sGC, with ODQ): not blocked

CC(C)c1ccc([C@@H](C(=O)Nc2cc(C(CC(=O)O)C(C)C)ccc2Cl)[C@@H](C)C(F)(F)F)cc1 (stereo partly drawn) [Example 10]
MEC (minimum effective concentration), activating action at the sGC enzyme [1]: 0.5 nM | pEC50 [1]: 8.00 | minimal effective concentration [2]: 0.0003 µM | pIC50 [4]: 6.88

CC(C)C(CC(=O)O)c1ccc(Cl)c(NC(=O)[C@H](c2ccc(C(C)(C)C)cc2)[C@@H](C)C(F)(F)F)c1 (stereo partly drawn) [Example 14]
MEC (minimum effective concentration), activating action at the sGC enzyme [1]: 0.5 nM | pEC50 [1]: 8.08 | minimal effective concentration [2]: 0.0003 µM | pIC50 [4]: 6.57
